From ChEMBL document CHEMBL3227967, “Quantitative structure-activity relationships in 1-aryl-2-(alkylamino)ethanol antimalarials” (J Med Chem, 1979)

System: Plasmodium berghei
Assay: Antimalarial activity against Plasmodium berghei
Format: functional

SMILES | log(1/C)
OC(CC1CCCCN1)c1cc2cc(Cl)c(Cl)cc2c2cc(C(F)(F)F)ccc12 (configuration not stated) | 4.19
OC(CC1CCCCN1)c1cc2cc(Cl)ccc2c2c(C(F)(F)F)cccc12 (configuration not stated) | 4.05
CCCN(CCC)CC(O)c1cc2ccc(Cl)c(Cl)c2c2cc(C(F)(F)F)ccc12 (configuration not stated) | 4.03
CCCCN(CCCC)CCC(O)c1cc2ccc(C(F)(F)F)cc2c2cc(C(F)(F)F)ccc12 (configuration not stated) | 4.03
OC(CC1CCCCN1)c1cc2ccc(C(F)(F)F)cc2c2cc(Cl)c(Cl)cc12 (configuration not stated) | 4.02
CCCCCN(CCCCC)CC(O)c1cc2cc(Cl)ccc2c2cc(Cl)ccc12 (configuration not stated) | 4.01
OC(CC1CCCCN1)c1cc2ccc(C(F)(F)F)cc2c2cc(C(F)(F)F)ccc12 (configuration not stated) | 3.99
CCCCN(CCCC)CC(O)c1cc2ccc(Cl)c(Cl)c2c2cc(C(F)(F)F)ccc12 (configuration not stated) | 3.98
CCCCN(CCCC)CC(O)c1cc2cc(Br)c(Br)cc2c2cc(Br)ccc12 (configuration not stated) | 3.97
OC(CC1CCCCN1)c1cc2cc(Br)ccc2c2cc(C(F)(F)F)ccc12 (configuration not stated) | 3.96
CCCN(CCC)CC(O)c1cc2ccc(Br)cc2c2cc(Br)ccc12 (configuration not stated) | 3.95
CCCCN(CCCC)CC(O)c1c(OC)c2cc(Br)ccc2c2ccc(Br)cc12 (configuration not stated) | 3.94
CN(C)CC(O)c1cc2cc(C(F)(F)F)cc(C(F)(F)F)c2c2ccccc12 (configuration not stated) | 3.94
CCCCCCCN(CCCCCCC)CC(O)c1cc2ccc(Cl)c(Cl)c2c2cc(C(F)(F)F)ccc12 (configuration not stated) | 3.92
CCCN(CCC)CC(O)c1cc2ccc(C(F)(F)F)cc2c2cc(C(F)(F)F)ccc12 (configuration not stated) | 3.92
OC(CC1CCCCN1)c1cc2cc(Cl)c(Cl)cc2c2cc(Br)ccc12 (configuration not stated) | 3.91
CCCCN(CCCC)CC(O)c1cc2cc(Cl)ccc2c2c(Cl)cc(Cl)cc12 (configuration not stated) | 3.91
CCN(CC)CC(O)c1cc2c(Cl)cc(Cl)cc2c2cc(Cl)ccc12 (configuration not stated) | 3.9
CCN(CC)CC(O)c1cc2cc(Cl)ccc2c2cc(Cl)ccc12 (configuration not stated) | 4.06
CCCCN(CCCC)CC(O)c1cc2c(Cl)cc(Cl)cc2c2c(Cl)cc(Cl)cc12 (configuration not stated) | 4.05
CCCN(CCC)CC(O)c1cc2cc(Cl)ccc2c2cc(Cl)ccc12 (configuration not stated) | 4.06
CCCN(CCC)CC(O)c1cc2cc(C(F)(F)F)cc(C(F)(F)F)c2c2cc(Cl)c(Cl)cc12 (configuration not stated) | 5.18

SMILES | log(1/C)
OC(CC1CCCCN1)c1cc2cc(C(F)(F)F)cc(C(F)(F)F)c2c2ccc(Cl)cc12 (configuration not stated) | 4.82
OC(CC1CCCCN1)c1cc2c(Cl)c(Cl)c(Cl)c(Cl)c2c2cc(C(F)(F)F)ccc12 (configuration not stated) | 4.75
CCCCNCCC(O)c1cc2ccc(C(F)(F)F)cc2c2cc(C(F)(F)F)ccc12 (configuration not stated) | 4.73
CC(C)(C)NCCC(O)c1cc2ccc(C(F)(F)F)cc2c2cc(C(F)(F)F)ccc12 (configuration not stated) | 4.73
OC(CC1CCCCN1)c1cc2cc(C(F)(F)F)cc(C(F)(F)F)c2c2cc(Cl)ccc12 (configuration not stated) | 4.72
CCCCNCCC(O)c1cc2c(Cl)cc(Cl)cc2c2cc(C(F)(F)F)ccc12 (configuration not stated) | 4.62
OC(CCNC1CCCCC1)c1cc2ccc(C(F)(F)F)cc2c2cc(C(F)(F)F)ccc12 (configuration not stated) | 4.53
CCCCNCC(O)c1cc2c(Cl)cc(Cl)cc2c2cc(C(F)(F)F)ccc12 (configuration not stated) | 4.48
OC(CC1CCCCN1)c1cc2cc(C(F)(F)F)cc(C(F)(F)F)c2c2cc(Cl)c(Cl)cc12 (configuration not stated) | 4.47
CCCNCC(O)c1cc2ccc(C(F)(F)F)cc2c2cc(C(F)(F)F)ccc12 (configuration not stated) | 4.48
OC(CC1CCCCN1)c1cc2cc(C(F)(F)F)cc(C(F)(F)F)c2c2cc(C(F)(F)F)ccc12 (configuration not stated) | 4.47
OC(CC1CCCCN1)c1cc2cc(Cl)cc(Cl)c2c2cc(Cl)ccc12 (configuration not stated) | 4.46
OC(CC1CCCCN1)c1cc2c(Cl)c(Cl)ccc2c2cc(C(F)(F)F)ccc12 (configuration not stated) | 4.45
OC(CC1CCCCN1)c1cc2cc(Cl)cc(Cl)c2c2cc(C(F)(F)F)ccc12 (configuration not stated) | 4.43
OC(CC1CCCCN1)c1cc2ccc(Cl)c(Cl)c2c2cc(C(F)(F)F)ccc12 (configuration not stated) | 4.4
OC(CC1CCCCN1)c1cc2cc(C(F)(F)F)ccc2c2ccccc12 (configuration not stated) | 4.39
CCNCC(O)c1cc2ccc(C(F)(F)F)cc2c2cc(C(F)(F)F)ccc12 (configuration not stated) | 4.39
CCCC(CCC)NCC(O)c1cc2ccc(C(F)(F)F)cc2c2cc(C(F)(F)F)ccc12 (configuration not stated) | 4.33
CCCN(CCC)CC(O)c1cc2cc(C(F)(F)F)cc(C(F)(F)F)c2c2ccccc12 (configuration not stated) | 4.31
CCCCN(CCCC)CC(O)c1cc2cc(Br)c(Br)cc2c2cc(C(F)(F)F)ccc12 (configuration not stated) | 4.31
OC(CC1CCCCN1)c1cc2ccc(C(F)(F)F)cc2c2c(Cl)cc(Cl)cc12 (configuration not stated) | 4.3
CCCN(CCC)CC(O)c1cc2ccc(C(F)(F)F)cc2c2cc(Cl)c(Cl)cc12 (configuration not stated) | 4.3

SMILES | log(1/C)
CCCCN(CCCC)CC(O)c1cc2c(Cl)cc(Cl)cc2c2cc(C(F)(F)F)ccc12 (configuration not stated) | 4.29
OC(CC1CCCCN1)c1cc2cc(Cl)ccc2c2c(Cl)cc(Cl)cc12 (configuration not stated) | 4.29
CCCN(CCC)CC(O)c1cc2cc(Br)cc(Br)c2c2cc(C(F)(F)F)ccc12 (configuration not stated) | 4.24
CCCN(CCC)CC(O)c1cc2cc(Br)ccc2c2cc(Br)ccc12 (configuration not stated) | 4.27
CCCCCN(CCCCC)CC(O)c1cc2ccc(Cl)c(Cl)c2c2cc(C(F)(F)F)ccc12 (configuration not stated) | 4.26
OC(CC1CCCCN1)c1cc2ccc(C(F)(F)F)cc2c2cc(Cl)ccc12 (configuration not stated) | 4.25
CNCC(O)c1cc2ccc(C(F)(F)F)cc2c2cc(C(F)(F)F)ccc12 (configuration not stated) | 4.23
CCCN(CCC)CCC(O)c1cc2ccc(C(F)(F)F)cc2c2cc(C(F)(F)F)ccc12 (configuration not stated) | 4.23
CCCCN(CCCC)CC(O)c1cc2cc(Br)cc(Br)c2c2ccccc12 (configuration not stated) | 4.22
CCCCN(CCCC)CC(O)c1cc2cc(Cl)cc(Cl)c2c2cc(Cl)ccc12 (configuration not stated) | 4.21
CCCCN(CCCC)CC(O)c1cc2ccc(Cl)cc2c2c(Cl)cc(Cl)cc12 (configuration not stated) | 4.21
OC(CC1CCCCN1)c1cc2c(Br)cc(Br)cc2c2cc(C(F)(F)F)ccc12 (configuration not stated) | 4.2
CCC(CC)NCC(O)c1cc2ccc(C(F)(F)F)cc2c2cc(C(F)(F)F)ccc12 (configuration not stated) | 4.2
CCCCN(CCCC)CC(O)c1cc2c(Br)cc(Br)cc2c2cc(Br)ccc12 (configuration not stated) | 4.19
CCCN(CCC)CC(O)c1cc2c(Cl)cc(Cl)cc2c2cc(Cl)ccc12 (configuration not stated) | 4.19
OC(CC1CCCCN1)c1cc2cc(C(F)(F)F)ccc2c2ccc(Cl)cc12 (configuration not stated) | 4.19
OC(CC1CCCCN1)c1cc2cc(C(F)(F)F)cc(C(F)(F)F)c2c2ccccc12 (configuration not stated) | 4.19
CCCCN(CCCC)CC(O)c1cc2cc(Cl)c(Cl)cc2c2c(Cl)cc(Cl)cc12 (configuration not stated) | 4.18
CCCCN(CCCC)CC(O)c1cc2cc(Cl)c(Cl)cc2c2c(Cl)c(Cl)ccc12 (configuration not stated) | 4.18
CCCCN(CCCC)CC(O)c1cc2cc(Cl)c(Cl)cc2c2cc(Cl)c(Cl)cc12 (configuration not stated) | 4.18
CCCCN(CCCC)CC(O)c1cc2cc(Br)ccc2c2cc(Br)ccc12 (configuration not stated) | 4.17
OC(CC1CCCCN1)c1cc2cc(Br)ccc2c2cc(Br)ccc12 (configuration not stated) | 4.13

SMILES | log(1/C)
CCCCN(CCCC)CC(O)c1cc2cc(Cl)cc(Cl)c2c2ccc(Cl)cc12 (configuration not stated) | 4.12
OC(CC1CCCCN1)c1cc2cc(Cl)ccc2c2cc(Cl)ccc12 (configuration not stated) | 4.12
CCN(CC)CCC(O)c1cc2ccc(C(F)(F)F)cc2c2cc(C(F)(F)F)ccc12 (configuration not stated) | 4.12
OC(CC1CCCCN1)c1cc2c(Cl)cc(Cl)cc2c2cc(Cl)ccc12 (configuration not stated) | 4.12
OC(CC1CCCCN1)c1cc2ccc(C(F)(F)F)cc2c2ccc(Cl)cc12 (configuration not stated) | 4.12
OC(CCC1CCCCN1)c1cc2ccc(C(F)(F)F)cc2c2cc(C(F)(F)F)ccc12 (configuration not stated) | 4.11
OC(Cc1ccc2ccccc2n1)c1cc2ccc(C(F)(F)F)cc2c2cc(C(F)(F)F)ccc12 (configuration not stated) | 4.11
CCCCNCC(O)c1cc2ccc(C(F)(F)F)cc2c2cc(C(F)(F)F)ccc12 (configuration not stated) | 4.11
CCCCN(CCCC)CC(O)c1cc2ccc(C(F)(F)F)cc2c2cc(C(F)(F)F)ccc12 (configuration not stated) | 4.1
OC(CC1CCCCN1)c1cc2c(Cl)cc(Cl)cc2c2cc(C(F)(F)F)ccc12 (configuration not stated) | 4.1
OC(CC1CCCCN1)c1cc2ccc(Cl)cc2c2cc(C(F)(F)F)ccc12 (configuration not stated) | 4.09
OC(CC1CCCCN1)c1cc2cc(Cl)ccc2c2cc(C(F)(F)F)ccc12 (configuration not stated) | 4.07
CCCCN(CCCC)CC(O)c1cc2cc(Br)ccc2c2cc(C(F)(F)F)ccc12 (configuration not stated) | 4.07
CC(C)NCCC(O)c1cc2ccc(C(F)(F)F)cc2c2cc(C(F)(F)F)ccc12 (configuration not stated) | 3.89
OC(CC1CCCNC1)c1cc2ccc(C(F)(F)F)cc2c2cc(C(F)(F)F)ccc12 (configuration not stated) | 3.89
OC(CCC1CCCCN1)c1cc2ccc(Cl)cc2c2cc(Cl)ccc12 (configuration not stated) | 3.89
CCCCCCCN(CCCCCCC)CC(O)c1cc2ccc(C(F)(F)F)cc2c2cc(C(F)(F)F)ccc12 (configuration not stated) | 3.89
CCCCN(CCCC)CC(O)c1cc2cc(Cl)cc(Cl)c2c2cc(SC)ccc12 (configuration not stated) | 3.88
CCCCN(CCCC)CC(O)c1cc2ccc(C(F)(F)F)cc2c2cc(Cl)ccc12 (configuration not stated) | 3.88
OC(CC1CCCCN1)c1cc2ccc(C(F)(F)F)cc2c2cc(Br)ccc12 (configuration not stated) | 3.86
CCCCCCCCN(CCCCCCCC)CC(O)c1cc(-c2ccc(OC)c(OC)c2)nc2ccc(Cl)cc12 (configuration not stated) | 3.11
